Results published in patent US9428791B2, “Probes of RNA structure and methods for using the same” (The Board of Trustees of the Leland Stanford Junior …, priority 2012, dated 2016).
Where two headings read alike, the source gives them in different places.

Key:
[1] = test system: 5S rRNA; assay type: cell-based, mouse
Experimental: (§1) Cells are then spun down and decanted. […] Extensions are performed for ten minutes.

[2] = test system: 5S rRNA; assay type: cell-based; conditions: cultured human cancer cells
Experimental: as §1

[3] = test system: ATP; assay: ATP gel shift acylation
Source text: ATP gel shift. […] Chem. Soc. 127, 4223-4231, (2005).

[4] = test system: human 5S rRNA; assay: Acylation of 5S rRNA in vitro (SHAPE)
Experimental: Acylation of RNA, in vitro. In a typical in vitro modification protocol, 6 μg total RNA is heated in metal-free water for two minutes at 95° C. The RNA is then flash-cooled on ice. The RNA 3× SHAPE buffer (333 mM HEPES, pH 8.0, 20 mM MgCl2, 333 mM NaCl) is added and the RNA allowed to equilibrate at 37° C. for ten minutes. To this mixture, 1 μL of 10× electrophile stock in DMSO (+) or DMSO (−) is added. The reaction is permitted to continue until the desired time. Reactions are quenched with 60 μL of DMS stop solution (0.5 M β-mercaptoethanol, 0.75 M Na.acetate, pH 5.5). Reactions are extracted once with acid phenol:chloroform (pH 4.5±0.2) and twice with chloroform. RNA is precipitated with 40 μL of 3M sodium acetate buffer (pH 5.2) and 1 μL of glycogen (20 ug/uL).
(§2) Extensions are performed for ten minutes.

[5] = test system: 5S rRNA; assay: Acylation of RNA in E. coli cells; assay type: cell-based, Escherichia coli
Experimental: Acylation of RNA in E. coli cells. […] E. coli cells are grown to an OD600 of 0.25 at 37° C. in […]. Cells are spun down at 4000×g and decanted. […] Cells are resuspended in a final volume of a fresh solution of 800 μl 0.5 mg/ml lysozyme, TE pH 8.0. 80 μl of 10% SDS is added to the mixture and the slurry is placed at 64° C. for 1-2 min. After incubation add 88 μl 1 M NaOAc, pH5.2 is added. The samples are added to an equal volume (1 ml) of water-saturated phenol (pH <7.0) and incubated at 64° C. for 6 min. The resultant slurry is spun at max speed (14,000 rpm) for 10 min at 4° C. […] Reverse transcription primer used for E. coil 5S rRNA: 5′-[…] (SEQ ID NO: 10).
as §2

[6] = test system: U1 snRNA, U2 snRNA, SNORD3A; assay: Acylation of nuclear RNAs in HeLa S3 cells; assay type: cell-based, Homo sapiens; conditions: HeLa S3, 200 mM final, thirty minutes
Experimental: Cells are then spun down and decanted. […] NO: 12). […] NO:7) (SEQ ID NO:13). […] NO:14). […] Extensions are performed for ten minutes.

[7] = test system: 5S rRNA; assay type: cell-based, Drosophila melanogaster; conditions: Drosophila S2 cells
Experimental: as §1

[8] = test system: 5S rRNA; assay: Acylation of RNA in yeast cells; assay type: cell-based, Saccharomyces cerevisiae
Experimental: Acylation of RNA in yeast cells. […] Yeast cells are grown to an OD600 of 1.0 at 30° C. in YPD medium. Cells are spun down at 4000×g and decanted. […] Cells are then spun down, decanted, and flash frozen in liquid nitrogen. Frozen pellets are resuspended in 500 uL of 50 mM NaOAc pH5.0, 10 mM EDTA pH 8.0 and 100 uL of 10% SDS. […] Cells are incubated at 65° C. for 1 minute. The freeze thaw cycle is repeated three times.
as §2

[9] = Hydrolysis of NAI and FAI in aqueous buffer (absorbance decay); assay type: physicochemical; conditions: 100 mM HEPES, 100 mM NaCl, 10 mM MgSO4, pH 8.0; fit f=y0+a*exp(−b*x); in 1/min
Experimental: Hydrolysis of NAI and FAI. Hydrolysis of NAI and FAI is monitored by adding 1.5 μL of a 100 mM solution of either NAI or FAI in spectroscopic grade DMF to 598.5 μL of buffer (100 mM HEPES, 100 mM NaCl, 10 mM MgSO4, pH 8.0) and monitoring the decrease in absorbance at 265 nm (NAI) or 275 nm (FAI). Three parameter pseudo-first order exponential decay kinetics are fit using OriginPro 8.0 software using the equation: f=y0+a*exp(−b*x)

[10] = test system: V6.5 mESCs
[11] = test system: ATP
Experimental: Briefly, 10,000 cpm/uL of radiolabeled ATP is incubated with increasing amounts of NAI or FAI (10% final volume) in 100 mM HEPES buffer, pH 8.0, containing 6 mM MgCl2, 100 mM NaCl. Reactions are stopped by addition of an equal volume of Gel Loading Buffer 11 (Ambion, Inc.) and placed on ice. […] Single adduct reaction rates and percentages are calculated by integrating bands (Image Quant, IM Support) and fit to a single exponential.

[12] = test system: ATP; conditions: see Weeks et al., J. Am. Chem. Soc. 127, 4223-4231, 2005; cited from earlier work
[13] = test system: HOTAIR; assay: Secondary structure probing of in vitro transcribed HOTAIR RNA; conditions: 5′ end of HOTAIR
Experimental: ABI-1 as a probe of RNA secondary structure. To evaluate the compound's ability to modify RNA at conformationally flexible positions ABI-1 was tested in comparison to NMIA. […] After incubation, the RNA was extracted and precipitated with ethanol.
ABI-1 Reversible Modification and Cell-Permeability. […] FIG. 15A.

[14] = Solubility; assay type: physicochemical

| SMILES | Time at which modification signal begins to plateau ([1]; 100 mM NAI, murine ESCs) [min] | Time to 5S rRNA modification with suitable signal-to-noise ratio ([1]; 100 mM NAI, murine ESCs) | 5S rRNA modification in cells (reverse transcription blocks) ([1]; live mouse ESC, aqueous buffer) | Extent of modification in cells, comparison of probes ([1]; same concentration) | 5S rRNA modification in cells [2] | Retained reactivity with ATP in aqueous buffer [3] | Sites of modification mapped to predicted secondary structure [4] | 5S rRNA modification in cells [5] | Modification of nuclear, lower abundant RNAs [6] | 5S rRNA modification in cells [7] | 5S rRNA modification in cells [8] | b (pseudo-first order exponential decay constant of hydrolysis) [9] | Cell attachment, morphology and trypan blue staining [10] | Result (qualitative: reactivity toward ATP, hydrolysis, solubility) [11] | Retained reactivity in aqueous buffer [12] | Mapping of RNA secondary structure [13] | maximum solubility [14] [mM] |
| --- | --- | --- | --- | --- | --- | --- | --- | --- | --- | --- | --- | --- | --- | --- | --- | --- | --- |
| Cc1ncccc1C(=O)n1ccnc1 [NAI, 2-methylnicotinic acid imidizolide] | ≤ 15 | in as little as one minute | caused blocks in subsequent reverse transcription | greater extent of modification than FAI | modifies 5S rRNA | retain reactivity with ATP at 120 minutes | map to residues that are predicted to be flexible | modifies 5S rRNA | modifies nuclear, lower abundant RNAs | modifies 5S rRNA | modifies 5S rRNA | .020476 | remained attached to tissue culture vessel, appeared morphologically normal and unstained by trypan blue | – | – | – | – |
| N#CC(=O)OCc1ccccc1 | – | – | – | – | – | – | – | – | – | – | – | – | – | Too Reactive, High Hydrolysis | – | – | – |
| Cn1c(=O)oc(=O)c2ccccc21 [NMIA, N-methylisotoic anhydride] | – | – | – | – | – | – | map to residues that are predicted to be flexible | – | – | – | – | – | – | – | mostly quenched after thirty minutes | successfully mapped the predicted secondary structure of the 5′ end of HOTAIR | 13 |
